From US20100190813A1, “SPIRO [PIPERIDINE-4- 4' -THIENO [3,2-C] PYRAN] DERIVATIVES AND RELATED COMPOUNDS AS INHIBITORS OF THE SIGMA RECEPTOR FOR THE TREATMENT OF PSYCHOSIS” (priority 2007, published 2010) come the findings set out here.

Data set [1] concerns the target T1, σ1-receptor (Cavia porcellus, UniProt Q60492).
T1 construct: the σ1-receptor preparation was prepared from guinea pig brain; from tissue; host or cells: guinea pig brain membrane homogenate
Description: Sigma 1 receptor binding (Version B), [3H]-(+)-Pentazocin displacement. Set-up: species or system guinea pig. The method, then:
In brief the σ1-receptor preparation was prepared from guinea pig brain. The brains were homogenized in 5 to 6 times of volume sucrose solution (0.32M) and homogenized. The homogenate was centrifuged at 2900 rpm, 4° C., 10 min). the supernatant was centrifuged again (23500×g, 4° C., 20 min). The pellet was resuspended in Tris-buffer, incubated for 30 min at room temperature and centrifuged f (23500×g, 4° C., 20 min). The pellet was resuspended in cold TRIS-buffer and homogenized. Then the protein content was measured (approx. 1.5 mg/mL) and the homogenate frozen at −80° C. for later use.
The radioligand used was [^3H]-(+)-Pentazocin in TRIS-buffer. In a volume of 200 μL 50 μL TRIS-buffer, 50 μL compound solution of varying concentration, 50 μL radioligand-solution (8 nM; resulting in 2 nM in the assay) and finally 50 μL of receptor preparation (approx. 1.5 mg/mL) were given into a well of a microplate equipped with a filter. The plate was closed and stirred for 2.5 h at 37° C. and 500 rpm. Following that the solvents were removed by a harvester through the filter. After rinsing with H2O the filter was measured in a scintillation counter ([^3H]-protocol).

Another data set concerns the target T2, σ2-receptor (Rattus norvegicus, UniProt Q5U3Y7).
T2 construct: the σ2-Receptorpreparation was prepared from rat liver; from tissue; host or cells: rat liver membrane homogenate
T2 sequence (Q5U3Y7 1-176): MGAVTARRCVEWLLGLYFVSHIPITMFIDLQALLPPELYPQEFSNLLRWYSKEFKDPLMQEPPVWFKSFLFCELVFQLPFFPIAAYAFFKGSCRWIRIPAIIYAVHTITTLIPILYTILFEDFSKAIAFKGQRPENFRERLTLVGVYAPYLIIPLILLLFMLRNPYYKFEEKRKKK
Description: Sigma 2 receptor binding (Version B), [3H]-Ditolylguanidin displacement. The following applies: for Ki: [3H]-Ditolylguanidin 3 nM, σ1 sites masked with (+)-Pentazocin 500 nM; for inhibition at 1 µM: read-out: Binding σ2 *[Inhibition at 1 μM]. The method, then:
In brief the σ2-Receptorpreparation was prepared from rat liver. The livers were homogenized in 5 to 6 times of volume sucrose solution (0.32M) and homogenized. The homogenate was centrifuged at 2900 rpm, 4° C., 10 min). the supernatant was centrifuged again (31000×g, 4° C., 20 min). The pellet was resuspended in TRIS-buffer, incubated for 30 min at room temperature while stirring and centrifuged f (31000×g, 4° C., 20 min). The pellet was resuspended in cold TRIS-buffer pH 8 and homogenized. Then the protein content was measured (approx. 2 mg/mL) and the homogenate frozen at −80° C. for later use.
The radioligand used was [^3H]-Ditolylguanidin in TRIS-buffer pH 8. The σ1-receptor binding sites were masked through (+)-Pentazocin-solution in TRIS-Puffer pH 8.
In a volume of 200 μL 50 μL compound solution of varying concentration, 50 μL (+)-Pentazocin-solution ([…]; resulting in 500 nM in the assay), 50 μL radioligand-solution (12 nM; resulting in 3 nM in the assay) and finally 50 μL of receptor preparation (approx. 2 mg/mL) were given into a well of a microplate equipped with a filter. The plate was closed and stirred for 2 h at room temperature and 500 rpm. Following that the solvents were removed by a harvester through the filter. After rinsing with H2O the filter was measured in a scintillation counter ([^3H]-protocol).

Data set [2] deals with T1, σ1-receptor. Description: Sigma-1 receptor binding (Version A), [3H]-(+)-pentazocine displacement. Set-up: species or system guinea pig.
Setting [3] is: version B, rat liver preparation, read-out: Binding σ2 Ki.
Where [4] appears, read: version B, guinea pig brain preparation, [3H]-(+)-Pentazocin 2 nM, read-out: Binding σ1 Ki.
Setting [5] is: version A, guinea pig brain membranes, [3H]-(+)-pentazocine 3.0 nM, read-out: Binding σ1, Ki.
Where [6] appears, read: Binding σ2 Ki [nM], version B, rat liver preparation.
Setting [7] is: version B, rat liver preparation, compound at 1 μM.

Like-named read-outs stand apart in the source and are kept apart here.

T1 sequence (Q60492 whole entry): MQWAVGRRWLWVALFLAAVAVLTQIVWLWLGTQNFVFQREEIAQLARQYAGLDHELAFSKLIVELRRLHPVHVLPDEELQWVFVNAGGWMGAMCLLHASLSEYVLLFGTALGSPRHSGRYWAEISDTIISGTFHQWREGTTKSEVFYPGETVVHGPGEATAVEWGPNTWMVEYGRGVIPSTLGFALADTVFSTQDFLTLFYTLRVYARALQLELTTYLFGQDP

For `COc1ccc(CN2CCC3(CC2)OC(OC)Cc2sccc23)cc1` (centres unmarked) [Example 14, 6′-Methoxy-1-(4-methoxybenzyl)-6′,7′-dihydrospiro[piperidin-4,4′-thieno[3.2-c]pyran]], the results for the Ki on σ1-receptor [1] and at σ2-receptor (setting [3]) were 2.24 ± 0.99 nM and 2970 nM, respectively. On to `CCCCN1CCC2(CC1)OC(OC)Cc1sccc12` (centres unmarked) [Example 8, 1-Butyl-6′-methoxy-6′,7′-dihydrospiro[piperidin-4,4′-thieno[3.2-c]pyran]], for which the Ki on σ1-receptor [1] (setting [4]) is 4.3 ± 0.44 nM; on σ2-receptor (setting [3]), 497 ± 294 nM; on σ1-receptor [2] it was 5.5 ± 1.2 nM. Regarding `N#CCC1Cc2sccc2C2(CCN(Cc3ccccc3)CC2)O1` (centres unmarked) [Example 23a], on σ2-receptor (version B, rat liver preparation, compound at 1 μM, 1 µM), the “Binding σ2 *[Inhibition at 1 μM]” value stood at 6%. In the case of `COC1Cc2sccc2C2(CCN(CCC(C)C)CC2)O1` (centres unmarked) [Example 6, 6′-Methoxy-1-(3-methylbutyl)-6′,7′-dihydrospiro[piperidin-4,4′-thieno[3.2-c]pyran]], the Ki on σ1-receptor [1] amounted to 0.96 ± 0.53 nM; at σ2-receptor (setting [3]), 285 nM; at σ1-receptor [2], 1.3 ± 0.5 nM. For the molecule `COC1Cc2sc(C(=O)c3ccccc3)cc2C2(CCN(Cc3ccccc3)CC2)O1` (centres unmarked) [Example 47, 1-(1-Benzyl-6′-methoxy-6′,7′-dihydrospiro[piperidine-4,4′-thieno[3.2-c]pyrano]-2-yl)-1-phenylmethanone], the Ki on σ2-receptor (setting [3]) is 427 ± 163 nM.

On to `COC1Cc2sccc2C2(CCN(CC3CCCCC3)CC2)O1` (centres unmarked) [Example 5, 1-(Cyclohexylmethyl)-6′Methoxy-6′,7′-dihydrospiro[piperidin-4,4′-thieno[3.2-c]pyran]], for which the results for the Ki on σ1-receptor [1] (setting [4]) and on σ1-receptor [2] (setting [5]) were 0.29 ± 0.079 nM and 2.2 ± 0.3 nM, respectively. Turning to `COC1Cc2sccc2C2(CCN(CCCc3ccccc3)CC2)O1` (centres unmarked) [Example 11], the Ki on σ2-receptor (setting [3]) amounted to 203 nM. With `CCCCCCCCN1CCC2(CC1)OC(OC)Cc1sccc12` (centres unmarked) [Example 10, 6′-Methoxy-1-octyl-6′,7′-dihydrospiro[piperidin-4,4-thieno[3.2-c]pyran]], the Ki is 4.5 ± 2 nM on σ1-receptor [1] and 1200 nM at σ2-receptor (setting [3]). In turn, `COC1Cc2sc(C(OC)OC)cc2C2(CCN(Cc3ccccc3)CC2)O1` (centres unmarked) [Example 37] came in with a melting point of 71 °C. `c1ccc(CN2CCC3(CC2)OCCc2sccc23)cc1` [Example 19, 1-Benzyl-6′,7′-dihydrospiro[piperidin-4,4′-thieno[3,2-c]pyran]]: the Ki at σ1-receptor [1] was 0.31 ± 0.11 nM; at σ2-receptor (setting [6]), 9.6 ± 8.7 nM; at σ1-receptor [2] (setting [5]) it was 2.1 ± 0.4 nM. With `CC(=O)CC1Cc2sccc2C2(CCN(Cc3ccccc3)CC2)O1` (centres unmarked) [Example 23, 1-(1-Benzyl-6′,7′-dihydrospiro[piperidine-4,4′-thieno[3.2-c]pyrano]-6′-yl)acetone], on σ2-receptor (setting [3]), the Ki amounted to 1610 nM. `COC1Cc2sc(C=NO)cc2C2(CCN(Cc3ccccc3)CC2)O1` (mixture of isomers) [Example 43, (E/Z)-1-Benzyl-6′-methoxy-6′,7′-dihydrospiro[piperidine-4,4′-thieno[3,2-c]pyrano]-2-carbaldehydroxim]: at σ2-receptor (setting [7]), the inhibition at 1 µM was determined as 2%. As to `COC1Cc2sc(CN(C)C)cc2C2(CCN(Cc3ccccc3)CC2)O1` (centres unmarked) [Example 42, (1-Benzyl-6′-methoxy-6′,7′-dihydrospiro[piperidine-4,4′-thieno[3.2-c]pyrano]-2′-yl)-N,N-dimethylmethanamine], the values for the Ki on σ1-receptor [1] and at σ2-receptor (setting [3]) were 16.8 ± 1.1 nM and 898 nM, respectively. For `c1ccc(CN2CCC3(CC2)OCCc2sccc23)cc1` [Example 26a], the Ki on σ1-receptor [1] (read-out: Binding σ1 Ki, version B, guinea pig brain preparation, [3H]-(+)-Pentazocin 2 nM) is 0.31 ± 0.11 nM. Take `COC1Cc2sccc2C2(CCNCC2)O1` (centres unmarked) [Example 2, 6′-Methoxy-6′,7′-dihydrospiro[piperidin-4,4′-thieno[3,2-c]pyran]: the Ki at σ1-receptor [1] (setting [4]) is 602 nM. In addition, the inhibition at 1 µM at σ2-receptor (setting [7]) was determined as 17%. For `OCCC1Cc2sccc2C2(CCN(Cc3ccccc3)CC2)O1` (centres unmarked) [Example 27, 2-(1-Benzyl-6′,7′-dihyrospiro[piperidine-4,4′-thieno[3,2-c]pyrano]-6′-yl)ethanol], the inhibition at 1 µM at σ2-receptor (setting [7]) came out at 11%. Still for that read-out and setting: next, `COC1Cc2sc(C#N)cc2C2(CCN(Cc3ccccc3)CC2)O1` (centres unmarked) [Example 44, 1-Benzyl-6′-methoxy-6′,7′-dihydrospiro[piperidine-4,4′-thieno[3,2-c]pyrano]-2-carbonitrile]: 16%. Regarding `COC1Cc2sccc2C2(CCN(Cc3cccs3)CC2)O1` (centres unmarked) [Example 15, 6′-Methoxy-1-(thien-2-ylmethyl)-6′,7′-dihydrospiro[piperidin-4,4′-thieno[3.2-c]pyran]], the values for the Ki at σ1-receptor [1] (setting [4]) and at σ2-receptor (setting [3]) were 2.02 ± 0.61 nM and 1040 nM, respectively. As for `COC1Cc2sccc2C2(CCN(CCCCc3ccccc3)CC2)O1` (centres unmarked) [Example 12, 3′-Methoxy-1-(4-phenylbutyl)-6′,7′-dihydrospiro[piperidin-4,4% thieno[3.2-c]pyran]], the Ki is 7.67 ± 2.15 nM on σ1-receptor [1] (setting [4]) and 99.2 ± 21.9 nM on σ2-receptor (setting [6]). In turn, `COC1Cc2sccc2C2(CCN(CCc3ccccc3)CC2)O1` (centres unmarked) [Example 4, 6′-Methoxy-1-(2-phenylethyl)-6′,7′-dihydrospiro[piperidin-4,4′-thieno[3.2-c]pyran]] registered a melting point of 94 °C. Further, the Ki at σ1-receptor [1] was 5.89 ± 5.1 nM. Besides, the Ki at σ2-receptor (setting [3]) is 191 nM. Turning to `COC1Cc2sccc2C2(CCN(CC=C(C)C)CC2)O1` (centres unmarked) [Example 7, 6′-Methoxy-1-(3-methylbut-2-enyl)-6′,7′-dihydrospiro[piperidin-4.4-thieno[3.2-c]pyran]], the results for the Ki on σ1-receptor [1] and at σ2-receptor (setting [6]) were 0.96 ± 0.25 nM and 78.1 ± 74 nM, respectively.

With `COC1Cc2sc(Cl)cc2C2(CCN(Cc3ccccc3)CC2)O1` (centres unmarked) [Example 38, 1-Benzyl-2′-chloro-6′-methoxy-6′,7′-dihydrospiro[piperidine-4,4′-thieno[3.2-c]-pyrano]], the melting point was 117 °C. The inhibition at 1 µM on σ2-receptor (setting [7]) worked out at 49%. For `CCCCCN1CCC2(CC1)OC(OC)Cc1sccc12` (centres unmarked) [Example 9, 6′-Methoxy-1-pentyl-6′,7′-dihydrospiro[piperidin-4,4′-thieno[3.2-c]pyran]], the Ki on σ1-receptor [1] worked out at 1.64 ± 0.53 nM; at σ2-receptor (setting [3]), 460 nM; at σ1-receptor [2], 2.9 ± 0.5 nM. Regarding `COC(=O)c1cc2c(s1)CC(OC)OC21CCN(Cc2ccccc2)CC1` (centres unmarked) [Example 45, Methyl-1-benzyl-6′-methoxy-6′,7′-dihydrospiro[piperidine-4,4′-thieno[3,2-c]pyrano]-2-carboxylate], the inhibition at 1 µM on σ2-receptor (setting [7]) is 45%. Turning to `O=C1Cc2sccc2C2(CCN(Cc3ccccc3)CC2)O1` [Example 28, 1-Benzylspiro[piperidine-4,4′-thieno[3.2-c]pyrano]-6′(7′H)-one], on σ2-receptor, the inhibition at 1 µM amounted to 0%. Take `N#CCC1Cc2sccc2C2(CCN(Cc3ccccc3)CC2)O1` (centres unmarked) [Example 18, {1-Benzyl-6′,7′-dihyrospiro[piperidin-4,4′-thieno[3,2-c]pyran]-6′-yl}acetonitril]: at σ2-receptor (setting [7]), the inhibition at 1 µM came out at 6%. The same measure, in the same setting: for `CCOC(=O)C1Cc2sccc2C2(CCN(Cc3ccccc3)CC2)O1` (centres unmarked) [Example 33, Ethyl-1-benzyl-6′,7′-dihvrospiro[piperidine-4,4′-thieno[3,2-c]pyrano]-6′-carboxylate] the value was 0%; for `NC(=O)C1Cc2sccc2C2(CCN(Cc3ccccc3)CC2)O1` (centres unmarked) [Example 29, 1-Benzyl-6′,7′-dihyrospiro[piperidine-4,4′-thieno[3,2-c]pyrano]-6′-carboxamide], 63%. With `COC1Cc2sccc2C2(CCN(Cc3ccc(F)cc3)CC2)O1` (centres unmarked) [Example 13, 1-(4-Flourbenzyl)-6′-Methoxy-6′,7′-dihydrospiro[piperidin-4,4′-thieno[3.2-c]pyran]], the Ki came to 3.39 ± 4.54 nM on σ1-receptor [1], 425 nM on σ2-receptor (setting [3]) and 2.3 ± 0.4 nM at σ1-receptor [2].
